Six molecules from US7247649B2, “Oxazoles, their manufacture and use as pharmaceutical agents” (Hoffmann-La Roche Inc., priority 2003, dated 2007) can be followed below.

The test system of series [1] is A549 cells (human lung carcinoma cell line). Description: A549 MTT cell proliferation assay (HER-signalling pathway inhibitors). The series is classed as cell-based. To be noted: for IC50: Homo sapiens, A549 cells, 5 days (120 h) incubation, MTT readout at 550 nm, 3 μM to 0.15 nM; for activity (in words): reference compound in the A549 biological assay. The procedure: A549 cells (human lung carcinoma cell line) were cultivated in RPMI 1640, 2.5% FCS, 2 mM Glutamine, 100 u/ml Penicillin, 100 μg/ml Streptomycin. For the assay the cells were seeded in 384 well plates, 900 cells per well, in the same medium. The next day compounds (dissolved 10 mM in DMSO) were added in various concentrations ranging from 3 μM to 0.15 nM (10 concentrations, 1:3 diluted). After 5 days the MTT assay was done mainly according to the instructions of the manufacturer (Cell proliferation kit I, MTT, from Roche Molecular Biochemicals). In brief: MTT labeling reagent was added to a final concentration of 0.5 mg/ml, added and incubated for 4 hrs at 37 C, 5% CO2. During this incubation time purple formazan crystals are formed. After addition of the solubilization solution (20% SDS in 0.02 M HCl) the plates were incubated overnight at 37° C., 5% CO2. After careful mixing plates were measured in Victor 2 (scanning multiwell spectrophotometer, Wallac) at 550 nm.
A decrease in number of living cells results in a decrease in the total metabolic activity in the sample. The decrease directly correlates to the amount of purple color resulting from the solubilization of the purple formazan crystals.
A549: 900 cells in 60 μl per well of 384 well plate (Greiner)
Medium: RPMI 1640, 2.5% FCS, glutamine, pen/strep.
Induction: • Dilution of compound in DMSO: 3 μl 10 mM+27 μl DMSO, dilute 1:3 • Add 2 μl of compound dilution row to 95 ul of medium • Add 10 μl of compound dilution to 60 μl medium in test plate→0.3% DMSO per well • Incubate 120 h (5 days) at 37° C., 5% CO2
Analysis: • Add 7 μl MTT (5 mg 7 ml/well), incubate 4 h at 37° C. • Add 30 μl lysis buffer (20% SDS, 0.04 N HCl) per well • Incubate overnight at 37° C.
Measurement: • Victor 2, 550 nm • Determination of IC50 was done using XL-fit.

The term IC50 denotes the concentration that gives 50% inhibition. Regarding `FC(F)(F)c1ccc(C=Cc2nc(COc3ccc(CCCCn4ccnn4)cc3)co2)cc1` [reference, 1-[4-(4-{2-[2-(4-trifluoromethyl-phenyl)-vinyl]-oxazol-4-ylmethoxy}-phenyl)-butyl]-1H-[1,2,3]triazole, reference compound], in series [1], half-maximal inhibition (IC50) was put at 7 nM and the “activity (in words)” value is “less activity than the compounds of the present invention”.
Regarding `Clc1ccc(/C=C/c2nc(COc3ccc(CCCCn4ccnn4)cc3)co2)cc1Cl` [Example 5, 1-[4-(4-{2-[2-(E)-(3,4-Dichloro-phenyl)-vinyl]-oxazol-4-ylmethoxy}-phenyl)-butyl]-1H-[1,2,3]triazole], in series [1], the IC50 turned out to be 900 nM and the “activity (in words)” value was “do not have reasonable activity”.
In series [1], `Fc1cc(Cl)ccc1/C=C/c1nc(COc2ccc(CCCCn3ccnn3)cc2)co1` [Example 2, 1-[4-(4-{2-[2-(E)-(4-Chloro-2-fluoro-phenyl)-vinyl]-oxazol-4-ylmethoxy}-phenyl)-butyl]-1H-[1,2,3]triazole] returned an IC50 below 5 nM.
For the molecule `FC(F)(F)c1cccc(/C=C/c2nc(COc3ccc(CCCCn4ccnn4)cc3)co2)c1` [Example 4, 1-[4(4-{2-[2-(E)-(3-Trifluoromethyl-phenyl)-vinyl]-oxazol-4-ylmethoxy}-phenyl)-butyl]-1H-[1,2,3]triazole], in series [1], inhibition was half-maximal at 3550 nM (IC50) and the “activity (in words)” value was “inactive”.
By melting point is commonly meant the temperature of the solid-liquid transition. In turn, `Fc1cc(/C=C/c2nc(COc3ccc(CCCCn4ccnn4)cc3)co2)ccc1Cl` [Example 1, 1-[4-(4-{2-[2-(E)-(4-Chloro-3-fluoro-phenyl)-vinyl]-oxazol-4-ylmethoxy}-phenyl)-butyl]1H-[1,2,3]triazole] returned a melting point of 146 to 149 °C. In series [1], the IC50 worked out at 460 nM and the “activity (in words)” value is reported as “do not have reasonable activity”.
In the case of `Fc1cc(C(F)(F)F)ccc1/C=C/c1nc(COc2ccc(CCCCn3ccnn3)cc2)co1` [Example 3, 1-[4-(4-{2-[2-(E)-(2-Fluoro-4-trifluoromethyl-phenyl)-vinyl]-oxazol-4-ylmethoxy}-phenyl)-butyl]-1H-[1,2,3]triazole], 2 nM corresponded to half-maximal inhibition in series [1] (IC50).
